Source: ChEMBL document CHEMBL1151496, “Nonpeptide GPIIB/IIIA inhibitors. 16. Thieno[2,3-b]thiophene -sulfonamides are potent inhibitors of platelet aggregation” (Bioorg Med Chem Lett, 1997)

Key:
Homo sapiens [1] = organism: Homo sapiens; experiment: Tested for the inhibition of [125 I] -L 692,884 binding to purified GPIIb/IIIa coated onto yttrium silicate Scintillation proximity assay fluomicrospheres
Homo sapiens [2] = organism: Homo sapiens; experiment: Measured by competition with fluorescent ligand L-762,745 for binding to resting human gel filtered platelets using flow cytometry; type: functional
Homo sapiens [3] = organism: Homo sapiens; experiment: The compound was tested for the inhibition of platelet aggregation; type: functional
Canis familiaris [4] = experiment: Tested ex vivo inhibition of platelet aggregation after oral dose of 200 ug/kg through out 24 hr in dog; type: functional; details: Canis lupus familiaris
Canis familiaris [5] = experiment: Tested ex vivo inhibition of platelet aggregation after oral dose of 200 ug/kg through out 8 hr in dog; type: functional; details: Canis lupus familiaris

| SMILES | ED50 (Homo sapiens [1]) [nM] | IC50 (Homo sapiens [3]) [nM] | Kd (Homo sapiens [2]) [nM] | inhibition in vivo at 0.2 mg/kg (Canis familiaris [4]) [%] | inhibition in vivo at 0.2 mg/kg (Canis familiaris [5]) [%] |
| --- | --- | --- | --- | --- | --- |
| O=C(NC[C@H](NS(=O)(=O)c1cccnc1)C(=O)O)c1cc2cc(CCCC3CCNCC3)sc2s1 | – | 21 | – | – | – |
| O=C(NCc1ccccc1)N[C@@H](CNC(=O)c1cc2cc(CCC3CCNCC3)sc2s1)C(=O)O | 1.9 | 76 | 94 | – | – |
| O=C(NC[C@H](NS(=O)(=O)c1ccccc1)C(=O)O)c1cc2cc(CCC3CCNCC3)sc2s1 | 0.03 | 8 | 0.023 | 50 | > 80 |
| CCCCS(=O)(=O)N[C@@H](CNC(=O)c1cc2cc(CCC3CCNCC3)sc2s1)C(=O)O | 0.12 | 32 | 5.6 | – | – |
| O=C(NC[C@H](NS(=O)(=O)c1ccc(Cl)cc1)C(=O)O)c1cc2cc(CCC3CCNCC3)sc2s1 | 0.09 | 11 | 0.026 | – | – |
| O=C(NC[C@H](NS(=O)(=O)c1cccs1)C(=O)O)c1cc2cc(CCC3CCNCC3)sc2s1 | 0.04 | 9 | 0.15 | – | – |
| O=C(NC[C@H](NS(=O)(=O)c1cccnc1)C(=O)O)c1cc2cc(CCC3CCNCC3)sc2s1 | – | 8 | – | – | – |
| O=C(NC[C@H](NS(=O)(=O)c1cccnc1)C(=O)O)c1cc2cc(CC3CCNCC3)sc2s1 | – | 23 | – | – | – |

Now from value to compound, other results behind:

| ED50 (Homo sapiens [1]) [nM] | IC50 (Homo sapiens [3]) [nM] | SMILES | Kd (Homo sapiens [2]) [nM] | inhibition in vivo at 0.2 mg/kg (Canis familiaris [4]) [%] | inhibition in vivo at 0.2 mg/kg (Canis familiaris [5]) [%] |
| --- | --- | --- | --- | --- | --- |
| 0.08 | 8 | O=C(NC[C@H](NS(=O)(=O)c1ccccc1)C(=O)O)c1cc2sc(CCC3CCNCC3)cc2s1 | 0.15 | – | – |
| – | 500 | O=C(O)CCNC(=O)c1cc2sc(CCC3CCNCC3)cc2s1 | ~600 | – | – |
| 2.6 | 36 | O=C(NCc1ccccc1)N[C@@H](CNC(=O)c1cc2sc(CCC3CCNCC3)cc2s1)C(=O)O | 33 | – | – |
| 0.04 | 13 | O=C(NC[C@H](NS(=O)(=O)c1cccs1)C(=O)O)c1cc2sc(CCC3CCNCC3)cc2s1 | 0.092 | – | – |
| 48 | 410 | O=C(O)CCNC(=O)c1cc2cc(CCC3CCNCC3)sc2s1 | – | – | – |
| 0.21 | 10 | CCCCS(=O)(=O)N[C@@H](CNC(=O)c1cc2sc(CCC3CCNCC3)cc2s1)C(=O)O | 3 | – | – |
